Laboratory results as given in ChEMBL document CHEMBL5154718, “Synthesis, biological evaluation, and molecular modeling simulations of new heterocyclic hybrids as multi-targeted anti-Alzheimer's agents” (Eur J Med Chem, 2022).
Calls of active or inactive are those of the source. The calls are words filed in the database; no cut-off is given here.

How the values were obtained:
Acetylcholinesterase [1] = target: T1, Acetylcholinesterase (Homo sapiens, UniProt P22303)
Description: Inhibition of C-terminal 6His-tagged human recombinant AChE (32 to 614 residues) expressed in HEK293 cells using acetylthiocholine iodide as substrate preincubated for 5 mins followed by substrate addition by Ellman's method

[2] = target: T2, Amyloid-beta precursor protein (Homo sapiens, UniProt P05067); assay: Inhibition of amyloid beta (1 to 42 ) (unknown origin) self aggregation at 25 uM measured after 3 hrs by ThT fluorescence assay relative to control
AChE = assay type: toxicity, cell-based; details: human, probe acetylthiocholine iodide; read-out: Ratio IC50
in vitro = details: human, HepG2 cells
Description: Cytotoxicity against human HepG2 cells assessed as cell growth inhibition incubated for 72 hrs by MTT assay

Cholinesterase [3] = target: T3, Cholinesterase (Homo sapiens, UniProt P06276)
Description: Inhibition of C-terminal 6His-tagged human recombinant BuChE (29 to 602 residues) using butyrylthiocholine iodide as substrate preincubated for 5 mins followed by substrate addition by Ellman's method

[4] = Metal chelating activity assessed as Fe2+-compound complex formation by measuring hyperchromic shift at 30 to 60 uM by UV-visible spectrophotometry; details: dose 30-60 µM
[5] = Metal chelating activity assessed as Zn2+-compound complex formation by measuring hypochromic shift at 30 to 60 uM by UV-visible spectrophotometry; details: dose 30-60 µM
[6] = target: T2, Amyloid-beta precursor protein; assay: Inhibition of amyloid beta (1 to 42 ) (unknown origin) self aggregation measured after 3 hrs by ThT fluorescence assay
in vivo = details: Sprague-Dawley, rat, ip
Description: Toxicity in Sprague-Dawley rat assessed as median lethal dose administered intraperitoneally as single dose

[7] = Metal chelating activity assessed as Fe2+-compound complex formation by measuring bathochromic shift at 30 to 60 uM by UV-visible spectrophotometry; details: dose 30-60 µM
[8] = Metal chelating activity assessed as Cu2+-compound complex formation by measuring hyperchromic shift at 30 to 60 uM by UV-visible spectrophotometry; details: dose 30-60 µM
animal or person = assay type: functional; details: Rattus norvegicus, Sprague-Dawley, Brain, route ip, time 1 hrs
[9] = Metal chelating activity assessed as Zn2+-compound complex formation by measuring bathochromic shift at 30 to 60 uM by UV-visible spectrophotometry; details: dose 30-60 µM
[10] = Metal chelating activity assessed as Zn2+-compound complex formation by measuring hyperchromic shift at 30 to 60 uM by UV-visible spectrophotometry; details: dose 30-60 µM
[11] = Metal chelating activity assessed as Cu2+-compound complex formation by measuring bathochromic shift at 30 to 60 uM by UV-visible spectrophotometry; details: dose 30-60 µM
[12] = Toxicity in Sprague-Dawley rat assessed as mortality up to 120 mg/kg, ip administered as single dose measured after 24 hrs; assay type: organism-based; details: in vivo
Cholinesterase [13] = target: T3, Cholinesterase; assay: Inhibition of human plasma BuChE using butyrylthiocholine as substrate preincubated for 5 mins followed by substrate addition by Ellman's method; assay type: cell-free
Acetylcholinesterase [14] = target: T1, Acetylcholinesterase; assay: Inhibition of human recombinant AChE using acetylthiocholine as substrate preincubated for 5 mins followed by substrate addition by Ellman's method

T1 sequence (P22303 whole entry): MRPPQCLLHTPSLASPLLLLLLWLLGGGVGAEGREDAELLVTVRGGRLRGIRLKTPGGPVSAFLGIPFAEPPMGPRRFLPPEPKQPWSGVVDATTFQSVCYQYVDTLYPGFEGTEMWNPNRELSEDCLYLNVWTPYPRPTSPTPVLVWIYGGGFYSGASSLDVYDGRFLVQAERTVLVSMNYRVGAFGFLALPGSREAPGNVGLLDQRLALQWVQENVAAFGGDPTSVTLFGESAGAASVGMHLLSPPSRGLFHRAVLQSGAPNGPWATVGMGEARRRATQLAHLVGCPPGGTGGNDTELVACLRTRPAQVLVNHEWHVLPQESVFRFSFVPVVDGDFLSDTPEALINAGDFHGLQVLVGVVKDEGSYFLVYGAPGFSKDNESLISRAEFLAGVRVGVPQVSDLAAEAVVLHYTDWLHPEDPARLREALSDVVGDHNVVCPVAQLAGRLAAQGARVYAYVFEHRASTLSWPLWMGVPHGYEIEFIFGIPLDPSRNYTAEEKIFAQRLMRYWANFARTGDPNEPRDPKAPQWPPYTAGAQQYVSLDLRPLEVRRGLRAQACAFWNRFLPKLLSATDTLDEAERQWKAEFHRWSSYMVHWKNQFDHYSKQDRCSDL
T3 sequence (P06276 whole entry): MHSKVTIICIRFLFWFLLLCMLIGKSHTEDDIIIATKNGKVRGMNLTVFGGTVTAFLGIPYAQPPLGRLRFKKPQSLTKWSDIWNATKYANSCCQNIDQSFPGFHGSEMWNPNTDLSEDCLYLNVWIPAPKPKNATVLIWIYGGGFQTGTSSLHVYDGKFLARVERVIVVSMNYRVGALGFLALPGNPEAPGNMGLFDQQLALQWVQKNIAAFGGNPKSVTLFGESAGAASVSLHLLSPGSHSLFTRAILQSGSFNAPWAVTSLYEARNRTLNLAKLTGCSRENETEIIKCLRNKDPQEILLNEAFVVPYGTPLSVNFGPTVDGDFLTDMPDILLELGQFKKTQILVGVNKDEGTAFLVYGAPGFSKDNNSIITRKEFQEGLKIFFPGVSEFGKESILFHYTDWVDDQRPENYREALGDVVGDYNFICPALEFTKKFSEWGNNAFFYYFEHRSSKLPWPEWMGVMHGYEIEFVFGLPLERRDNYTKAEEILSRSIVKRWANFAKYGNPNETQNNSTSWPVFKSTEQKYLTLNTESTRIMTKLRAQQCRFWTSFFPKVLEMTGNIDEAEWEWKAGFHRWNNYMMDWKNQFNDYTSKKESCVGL
T2 sequence (P05067 whole entry): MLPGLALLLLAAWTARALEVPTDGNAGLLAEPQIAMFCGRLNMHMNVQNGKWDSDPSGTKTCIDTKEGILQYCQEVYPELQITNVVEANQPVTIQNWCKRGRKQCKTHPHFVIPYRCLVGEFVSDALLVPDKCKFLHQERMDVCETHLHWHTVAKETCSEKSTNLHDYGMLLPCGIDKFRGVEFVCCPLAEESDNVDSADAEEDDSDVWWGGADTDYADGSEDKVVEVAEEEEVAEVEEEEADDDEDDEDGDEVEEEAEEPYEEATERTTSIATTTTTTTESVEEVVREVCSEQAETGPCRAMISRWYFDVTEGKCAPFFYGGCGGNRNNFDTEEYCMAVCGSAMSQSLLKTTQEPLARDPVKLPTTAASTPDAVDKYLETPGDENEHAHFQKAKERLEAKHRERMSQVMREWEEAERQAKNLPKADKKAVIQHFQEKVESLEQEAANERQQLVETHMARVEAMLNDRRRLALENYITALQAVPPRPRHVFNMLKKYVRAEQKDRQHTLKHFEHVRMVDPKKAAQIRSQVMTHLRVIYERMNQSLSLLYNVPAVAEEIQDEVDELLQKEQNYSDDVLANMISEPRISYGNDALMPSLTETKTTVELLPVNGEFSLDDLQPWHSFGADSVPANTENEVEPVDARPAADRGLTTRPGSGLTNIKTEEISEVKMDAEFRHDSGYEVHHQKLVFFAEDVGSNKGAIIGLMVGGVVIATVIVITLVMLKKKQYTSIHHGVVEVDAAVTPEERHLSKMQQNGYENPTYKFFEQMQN

Structure (SMILES): Nc1nn(-c2c3c(nc4ccc([N+](=O)[O-])cc24)CCCC3)c2ncccc12
- IC50 (Acetylcholinesterase [1]): 0.056 µM
- inhibition [2]: 48%
- selectivity ratio at 72 h (AChE): 800
- IC50 at 72 h (in vitro): 44.8 µM
- IC50 (Cholinesterase [3]): 5.22 µM
- Activity [4]: Active
- Activity [5]: Active
- IC50 [6]: 31.8 µM

Structure (SMILES): O=C(CN1CCN(c2ccccc2)CC1)Nc1n[nH]c2ncccc12
- IC50 (Acetylcholinesterase [1]): 1.95 µM

Structure (SMILES): Cc1ccc2nc3c(c(N4CCCCC4)c2c1)CCCC3
- LD50 (in vivo): 42 mg/kg
- IC50 (Acetylcholinesterase [1]): 0.118 µM
- Activity [7]: Active
- inhibition [2]: 61.9%
- Activity [8]: Active
- selectivity ratio at 72 h (AChE): 321
- inhibition in vivo at 10 mg/kg (animal or person): 35%
- IC50 at 72 h (in vitro): 37.9 µM
- Activity [9]: Active
- Activity [10]: Active
- IC50 (Cholinesterase [3]): 1.99 µM
- Activity [11]: Active
- Activity [4]: Active
- IC50 [6]: 6.7 µM

Structure (SMILES): O=[N+]([O-])c1ccc2nc3c(c(Nc4[nH]nc5ncccc45)c2c1)CCCC3
- IC50 (Acetylcholinesterase [1]): 0.299 µM
- inhibition [2]: 81.5%
- Activity [8]: Active
- selectivity ratio at 72 h (AChE): 105
- IC50 at 72 h (in vitro): 31.3 µM
- Activity [10]: Active
- IC50 (Cholinesterase [3]): 0.429 µM
- Activity [11]: Active
- Activity [4]: Active
- IC50 [6]: 0.777 µM

Structure (SMILES): Cc1ccc2nc3c(c(N4CCN(c5c6c(nc7ccc(C)cc57)CCCC6)CC4)c2c1)CCCC3
- IC50 (Acetylcholinesterase [1]): 0.521 µM

Structure (SMILES): O=C(Cn1nc2ncccc2c1NC(=O)Cn1nc2ncccc2c1NC(=O)CN1CCN(Cc2ccccc2)CC1)Nc1[nH]nc2ncccc12
- IC50 (Acetylcholinesterase [1]): 18 µM

Structure (SMILES): O=C(CCN1CCOCC1)Nc1n[nH]c2ncccc12
- IC50 (Acetylcholinesterase [1]): 0.275 µM
- inhibition [2]: 71.8%
- IC50 (Cholinesterase [3]): 0.473 µM
- IC50 [6]: 2.13 µM

Structure (SMILES): O=C(CCN1CCCCC1)Nc1n[nH]c2ncccc12
- IC50 (Acetylcholinesterase [1]): 0.658 µM

Structure (SMILES): O=C(CN1CCN(Cc2ccccc2)CC1)Nc1n[nH]c2ncccc12
- IC50 (Acetylcholinesterase [1]): 0.301 µM
- inhibition [2]: 65%
- IC50 (Cholinesterase [3]): 2.81 µM
- IC50 [6]: 5.67 µM

Structure (SMILES): O=[N+]([O-])c1ccc2nc3c(c(N4CCOCC4)c2c1)CCCC3
- IC50 (Acetylcholinesterase [1]): 1.22 µM

Structure (SMILES): O=C(CCN1CCN(Cc2ccccc2)CC1)Nc1n[nH]c2ncccc12
- IC50 (Acetylcholinesterase [1]): 0.034 µM
- inhibition [2]: 55.5%
- selectivity ratio at 72 h (AChE): 735
- inhibition in vivo at 10 mg/kg (animal or person): 35%
- IC50 at 72 h (in vitro): 25 µM
- Activity [10]: Active
- IC50 (Cholinesterase [3]): 3.57 µM
- Activity [11]: Active
- Activity [4]: Active
- Activity [12]: Non-Toxic
- IC50 [6]: 13.3 µM

Structure (SMILES): Cc1ccc2nc3c(c(N4CCOCC4)c2c1)CCCC3
- IC50 (Acetylcholinesterase [1]): 1.78 µM

Structure (SMILES): Cc1ccc2nc3c(c(NCCN4CCCCC4)c2c1)CCCC3
- IC50 (Acetylcholinesterase [1]): 2.54 µM

Structure (SMILES): Cc1ccc2nc3c(c(N4CCN(C)CC4)c2c1)CCCC3
- IC50 (Acetylcholinesterase [1]): 0.44 µM

Structure (SMILES): CC(=O)Nc1ccc2nc3c(c(N4CCCCC4)c2c1)CCCC3
- IC50 (Acetylcholinesterase [1]): 0.301 µM
- inhibition [2]: 77.3%
- IC50 (Cholinesterase [3]): 0.459 µM
- IC50 [6]: 1.3 µM

Structure (SMILES): COc1cc2c(cc1OC)C(=O)C(CC1CCN(Cc3ccccc3)CC1)C2 (centres undefined) [DONEPEZIL]
- LD50 (in vivo): 32.5 mg/kg
- inhibition in vivo at 10 mg/kg (animal or person): 46.5%

Structure (SMILES): O=C(CCN1CCN(c2ccccc2)CC1)Nc1n[nH]c2ncccc12
- IC50 (Acetylcholinesterase [1]): 0.23 µM
- inhibition [2]: 65.5%
- IC50 (Cholinesterase [3]): 0.782 µM
- IC50 [6]: 1.98 µM

Structure (SMILES): Cc1ccc2nc3c(c(Nc4[nH]nc5ncccc45)c2c1)CCCC3
- IC50 (Acetylcholinesterase [1]): 0.811 µM

Structure (SMILES): CN1CCN(c2c3c(nc4ccc([N+](=O)[O-])cc24)CCCC3)CC1
- IC50 (Acetylcholinesterase [1]): 0.245 µM
- inhibition [2]: 66.4%
- IC50 (Cholinesterase [3]): 0.166 µM
- IC50 [6]: 4.49 µM

Structure (SMILES): O=[N+]([O-])c1ccc2nc3c(c(N4CCCCC4)c2c1)CCCC3
- IC50 (Acetylcholinesterase [1]): 1.89 µM

Structure (SMILES): Cc1ccc2nc3c(c(NCCCl)c2c1)CCCC3
- IC50 (Acetylcholinesterase [1]): 0.763 µM

Structure (SMILES): c1ccc2c(NCCN3CCOCC3)c3c(nc2c1)CCCC3
- IC50 (Cholinesterase [13]): 0.016 µM
- IC50 (Acetylcholinesterase [14]): 0.093 µM

Structure (SMILES): Cc1ccc2nc3c(c(NCCN4CCN(Cc5ccccc5)CC4)c2c1)CCCC3
- IC50 (Acetylcholinesterase [1]): 6.38 µM

Structure (SMILES): COc1cc2nc3c(c(N4CCOCC4)c2cc1OC)CCCC3
- IC50 (Acetylcholinesterase [1]): 0.062 µM
- Activity [7]: Active
- inhibition [2]: 78.6%
- Activity [8]: Active
- selectivity ratio at 72 h (AChE): 102
- inhibition in vivo at 10 mg/kg (animal or person): 35%
- IC50 at 72 h (in vitro): 6.3 µM
- Activity [10]: Active
- IC50 (Cholinesterase [3]): 0.767 µM
- Activity [11]: Active
- Activity [4]: Active
- Activity [5]: Active
- Activity [12]: Non-Toxic
- IC50 [6]: 1.23 µM

Structure (SMILES): Cc1ccc2nc3c(c(NCCN4CCOCC4)c2c1)CCCC3
- LD50 (in vivo): 96.5 mg/kg
- IC50 (Acetylcholinesterase [1]): 0.131 µM
- Activity [7]: Active
- inhibition [2]: 54.6%
- Activity [8]: Active
- selectivity ratio at 72 h (AChE): 72.8
- inhibition in vivo at 10 mg/kg (animal or person): 35%
- IC50 at 72 h (in vitro): 9.53 µM
- Activity [9]: Active
- Activity [10]: Active
- IC50 (Cholinesterase [3]): 3.13 µM
- Activity [11]: Active
- Activity [4]: Active
- IC50 [6]: 15 µM

Structure (SMILES): Cc1ccc2nc3c(c(NCCN4CCN(C)CC4)c2c1)CCCC3
- IC50 (Acetylcholinesterase [1]): 0.974 µM

Structure (SMILES): Cc1ccc2nc3c(c(NCCO)c2c1)CCCC3
- IC50 (Acetylcholinesterase [1]): 0.18 µM
- inhibition [2]: 69.8%
- IC50 (Cholinesterase [3]): 0.84 µM
- IC50 [6]: 2.95 µM

Structure (SMILES): CC(=O)Nc1ccc2nc3c(c(N4CCOCC4)c2c1)CCCC3
- IC50 (Acetylcholinesterase [1]): 1.11 µM

Structure (SMILES): CN1CCN(CCC(=O)Nc2n[nH]c3ncccc23)CC1
- IC50 (Acetylcholinesterase [1]): 0.844 µM
